According to patent US9475789B2, “Use of polyenylpyrrole derivatives for treating inflammation” (WELLHEAD BIOLOGICAL TECHNOLOGY CORP., priority 2014, dated 2016):
Entries after “also recorded” stand apart in the source; their conditions may differ.

How the values were obtained:
Assay type in all cases: cell-based, murine
ROS = experiment: Intracellular ROS production, LPS-activated RAW 264.7 macrophages; conditions: compound 1h 20 μM, NAC 10 mM, 30 min before LPS
Method: In (A), RAW 264.7 macrophages (5×10^5/ml) were incubated with compound 1h (20 μM), N-acetyl cysteine (NAC; 10 mM) or DMSO (vehicle) for 30 min followed by LPS (1 μg/ml) stimulating for the indicated time, then ROS levels were measured by detection of the fluorescence intensity of the fluorophore carboxyl-DCF and expressed relative to those at time zero. In (B), RAW 264.7 macrophages (5×10^5/ml) were incubated with compound 1h (20 μM) or DMSO for 30 min followed by LPS (1 μg/ml) stimulating for 0-60 min, then the phosphorylation levels of ERK1/2, JNK1/2, p38 were analyzed by Western blot. In (C), J774A.1 macrophages (5×10^5/ml) were incubated with compound 1h or DMSO for 30 min followed by LPS (1 μg/ml) stimulating for 20 min, then the phosphorylation levels of ERK1/2, JNK1/2, p38 were analyzed by Western blot.
Intracellular ROS stimulated by LPS was measured by detecting the fluorescence intensity of the 2′,7′-dichlorofluorescein diacetate (H2DCFDA) oxidized product (DCF) (Molecular Probes, Eugene, Oreg.). […] The relative fluorescence intensity of fluorophore DCF, formed by peroxide oxidation of the non-fluorescent precursor, was detected at an excitation wavelength of 485 nm and an emission wavelength of 530 nm with a microplate absorbance reader (Bio-Rad Laboratories, Inc).

PKC-α = experiment: Western blot of PKC-α phosphorylation, ATP-activated LPS-primed J774A.1 macrophages; conditions: compound 1h 20 μM
Method: In (A), J774A.1 macrophages (1×10^6/ml) were incubated with LPS (1 μg/ml) for 5.5 h and then incubated with compound 1 h ([…]), DPI (100 μM), or DMSO (vehicle) for 30 min followed by ATP (5 mM) stimulating for the indicated time, then ROS levels were measured by detection of the fluorescence intensity of the fluorophore carboxyl-DCF and expressed relative to those at time zero. In (B), J774A.1 macrophages (1×10^6/ml) were incubated with compound 1h (20 μM), DPI (100 μM), or DMSO (vehicle) for 30 min followed by LPS (1 μg/ml) stimulating for 5.5 h, then the cells were stimulated with ATP (5 mM) for the indicated time. The ROS levels were measured by detection of the fluorescence intensity of the fluorophore carboxyl-DCF and expressed relative to those at time zero. In (C), LPS-primed J774A.1 macrophages (1×10^6/ml) were incubated with compound 1h (20 μM) or DMSO (vehicle) for 30 min followed by ATP (5 mM) stimulating for 0-60 min, then the phosphorylation level of PKC-α was analyzed by Western blot.
Whole cell lysates were separated by SDS-PAGE and electrotransferred to a PVDF membrane. The membranes were incubated in blocking solution—5% nonfat milk in phosphate buffered saline with 0.1% Tween 20—at room temperature for 1 h. Each membrane was incubated with a specific primary antibody at room temperature for 2 h. […]

IKK-α and IκB-α = experiment: Western blot of IKK-α and IκB-α, LPS-activated J774A.1 macrophages; conditions: LPS-activated J774A.1, LPS 20 min
Method: (A) RAW 264.7 macrophages (5×10^5/ml) or (B) J774A.1 macrophages (5×10^5/ml) were incubated with compound 1h or DMSO for 30 min followed by LPS (1 μg/ml) stimulating for 20 min, then the phosphorylation levels of IKK-α and IκB-α and total IκB-α protein level were analyzed by Western blot. (C) RAW 264.7 macrophages (5×10^5/ml) or (D) J774A.1 macrophages (5×10^5/ml) were incubated with compound 1h (10-40 μM) or DMSO for 30 min followed by LPS (1 μg/ml) stimulating for 20 min, then the nuclear translocation of NF-κB were analyzed by ELISA. (E) RAW-Blue™ cells (5×10^5/ml) were incubated with compound 1h (2.5-40 μM) or DMSO for 30 min followed by LPS (1 μg/ml) stimulating for 24 h, then the SEAP activity was measured by QUANTI-Blue™. […] In (C), (D), and (E), the data are expressed as the mean±SD for three separate experiments. *, **, and *** indicate a significant difference at the level of p<0.05, p<0.01, and p<0.001 respectively compared to LPS group.
Whole cell lysates were separated by SDS-PAGE and electrotransferred to a PVDF membrane. The membranes were incubated in blocking solution—5% nonfat milk in phosphate buffered saline with 0.1% Tween 20—at room temperature for 1 h. Each membrane was incubated with a specific primary antibody at room temperature for 2 h. After washing three times in PBS with 0.1% Tween 20, the membrane was incubated with an HRP-conjugated secondary antibody directed against the primary antibody. The membrane was developed by an enhanced chemiluminescence Western blot detection system.

[1] = test system: LPS-induced NO generation in RAW 264.7 macrophages; experiment: NO inhibitory assay (Griess reaction) in LPS-activated macrophages
Method: In (A) and (C), cells (5×10^5/ml) were incubated with polyenylpyrrole derivatives or DMSO (vehicle) for 30 min followed by stimulating with LPS (1 μg/ml) for 24 h, then NO (A), IL-6 and TNF-α (C) concentration in culture medium were assayed by Griess reaction and ELISA, respectively. In (B), cells (5×10^5/ml) were pretreated with polyenylpyrrole derivatives or DMSO for 30 min followed by stimulating with LPS (1 μg/ml) for 24 h, then the protein expression of iNOS and COX-2 were assayed by Western blot. […] RAW 264.7 cells were seeded in 24-well plates at a density of 5×10^5 cells/ml, and then incubated with or without LPS (1 μg/ml) in the absence or presence of tested samples for 24 h. The effects of the tested samples on NO production were measured indirectly by analysis of nitrite levels using the Griess reaction.

EC50 ([1]; Mus musculus, RAW264.7, 50% inhibition of the LPS-induced NO generation, RAW 264.7, LPS 1 μg/ml, 24 h, read-out: ED50 (the source's name)): 15 ± 2 µM
SMILES: O=c1cc(O)cc(/C=C/C=C/C=C/C=C/c2[nH]ccc2Cl)o1 [Compound 1h]
LPS-stimulated ROS production (ROS): able to reduce LPS-stimulated ROS production
ATP-induced PKC-α phosphorylation (PKC-α): inhibited
IκB-α degradation (IKK-α and IκB-α): partially rescued
phosphorylation level of IKK-α (IKK-α and IκB-α): inhibited
phosphorylation level of IκB-α (IKK-α and IκB-α): inhibited
production of NO by LPS-activated cells ([1]; RAW 264.7, LPS 1 μg/ml 24 h, Griess reaction): decreased production; also recorded: decreased the production of NO by LPS-activated cells in a dose-dependent manner
background level of NO ([1]; compound alone, no LPS, RAW 264.7, data not shown): did not alter
